Reference: patent US10851080B2, “Methods of treatment using pyrrolidinyl urea, thiourea, guanidine and cyanoguanidine compounds” (Array BioPharma Inc., priority 2012, dated 2020)

Legend:
[1] = target: His-tagged recombinant human TrkA (Homo sapiens (Human), UniProt P04629); test: TrkA LanthaScreen Eu Kinase Binding Assay; conditions: averaged IC50, TrkA binding assay of Example A; read-out: TrkA Enzyme IC50
Method: TrkA binding activity was determined in a TrkA LanthaScreen™ Eu Kinase Binding Assay. 5 nM His-tagged recombinant human TrkA (6HIS tagged cytoplasmic domain from Invitrogen, Catalog No. PV3144) was incubated with 4 nM Alexa-Fluor® Tracer 236 (Invitrogen Cat. No. PV5592), 2 nM biotinylated anti-His (Invitrogen Cat. No. PV6090), and 2 nM europium-labeled Streptavidin (Invitrogen Cat. No. PV5899), in buffer (25 mM MOPS, pH 7.5, 5 mM MgCl2, 0.005% Triton X-100). Three fold serial dilutions of compounds of the invention in DMSO were added to a final percentage of 2% DMSO. After 60-minute incubation at 22° C., the reaction was measured using the EnVision mutlimode plate reader (PerkinElmer) via TR-FRET dual wavelength detection at […]. The percent of control was calculated using a ratiometric emission factor. The IC50 values were determined by fitting a four parameter model to the percent of control data.
Table A provides averaged IC50 values for compounds of the invention when tested in the assay of Example A, where A represents an averaged IC50 value <100 nM.

off-target kinases = test: KinaseProfiler full kinase panel (overall); assay type: biochemical; conditions: 10 μM; for activity against off-target kinases: full kinase panel; for selectivity for inhibiting TrkA versus other kinases in the panel: panel of about 230 kinases
Method: Two representative compounds (Example 2, 14) of the invention were tested for off-target kinase activity at a concentration of 10 μM by Millipore, Inc. in their KinaseProfiler™ service against all the kinases available in their full kinase panel. These compounds were run in duplicate at a concentration of ATP near the Km for each individual kinase according to Millipore's specifications. The results are shown in Table B. Data are reported as percent of control (POC) and are the average of the two replicates.
Such a drug profile would represent a safer approach to treating pain, inflammation, cancer and certain skin diseases than has been previously reported.

Chain of His-tagged recombinant human TrkA (P04629 440-796): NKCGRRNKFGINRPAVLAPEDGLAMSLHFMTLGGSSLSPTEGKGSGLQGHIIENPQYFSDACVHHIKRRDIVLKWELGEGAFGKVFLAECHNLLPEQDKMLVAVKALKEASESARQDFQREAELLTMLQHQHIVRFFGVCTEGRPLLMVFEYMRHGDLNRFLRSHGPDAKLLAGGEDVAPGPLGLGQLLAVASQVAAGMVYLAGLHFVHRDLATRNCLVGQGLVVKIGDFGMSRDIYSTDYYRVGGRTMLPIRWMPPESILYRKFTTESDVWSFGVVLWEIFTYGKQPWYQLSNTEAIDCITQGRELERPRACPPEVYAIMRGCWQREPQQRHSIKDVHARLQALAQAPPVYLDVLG

Row | Structure (SMILES) | IC50 [1] | activity against off-target kinases (off-target kinases) | selectivity for inhibiting TrkA versus other kinases in the panel (off-target kinases)
1 | COCCN1C[C@@H](NC(=O)Nc2c(C)c(-c3ccc(=O)n(C)c3)nn2-c2ccccc2)[C@H](c2cc(F)cc(Cl)c2)C1 (relative stereo) [Example 24, 1-(trans-4-(3-chloro-5-fluorophenyl)-1-(2-methoxyethyl)pyrrolidin-3-yl)-3-(4-methyl-3-(1-methyl-6-oxo-1,6-di hydropyridin-3-yl)-1-phenyl-1H-pyrazol-5-yl)urea] | < 100 nM |  | 
2 | COCCN1C[C@@H](NC(=O)Nc2c(C)c(-c3ccc(=O)n(C)c3)nn2-c2ccccc2)[C@H](c2ccc(F)c(Cl)c2)C1 (relative stereo) [Example 22, 1-(trans-4-(3-chloro-4-fluorophenyl)-1-(2-methoxyethyl)pyrrolidin-3-yl)-3-(4-methyl-3-(1-methyl-6-oxo-1,6-di hydropyridin-3-yl)-1-phenyl-1H-pyrazol-5-yl)urea] | < 100 nM |  | 
3 | COCCN1C[C@@H](NC(=O)Nc2c(C)c(-c3ccnc(C)c3)nn2-c2ccccc2)[C@H](c2ccc(F)c(F)c2)C1 [Example 2, 1-((3S,4R)-4-(3,4-difluorophenyl)-1-(2-methoxyethyl)pyrrolidin-3-yl)-3-(4-methyl-3-(2-methylpyridin-4-yl)-1-phenyl-1H-pyrazol-5-yl)urea] |  | largely inactive | remarkable and unexpected selectivity
4 | COCCN1C[C@@H](NC(=O)Nc2c(C)c(-c3ccc(=O)n(C)c3)nn2-c2ccccc2)[C@H](c2ccc(Cl)c(F)c2)C1 (relative stereo) [Example 23, 1-(trans-4-(4-chloro-3-fluorophenyl)-1-(2-methoxyethyl)pyrrolidin-3-yl)-3-(4-methyl-3-(1-methyl-6-oxo-1,6-dihydropyridin-3-yl)-1-phenyl-1H-pyrazol-5-yl)urea] | < 100 nM |  | 
5 | COCCN1C[C@@H](NC(=O)Nc2c(C)c(-c3ccc(=O)n(C)c3)nn2-c2ccccc2)[C@H](c2cccc(Cl)c2)C1 (relative stereo) [Example 25, 1-(trans-4-(3-chlorophenyl)-1-(2-methoxyethyl)pyrrolidin-3-yl)-3-(4-methyl-3-(1-methyl-6-oxo-1,6-di hydropyridin-3-yl)-1-phenyl-1H-pyrazol-5-yl)urea] | < 100 nM |  | 
6 | COCCN1C[C@@H](NC(=O)Nc2c(C)c(-c3cnc(C)nc3)nn2-c2ccccc2)[C@H](c2cc(F)cc(F)c2)C1 [Example 14, 1-((3S,4R)-4-(3,5-difluorophenyl)-1-(2-methoxyethyl)pyrrolidin-3-yl)-3-(4-methyl-3-(2-methylpyrimidin-5-yl)-1-phenyl-1H-pyrazol-5-yl)urea] |  | largely inactive | remarkable and unexpected selectivity
